Experimental data taken from PMC9139161, “Phenolics from Chrozophora oblongifolia Aerial Parts as Inhibitors of α-Glucosidases and Advanced Glycation End Products: In-Vitro Assessment, Molecular Docking and Dynamics Studies” (Biology, 2022).
Several values for one entry are separate records, joined by “and”; a condition that tells them apart may be missing. Equal entries are not always repeated. Where two headings read alike, the source gives them in different places. Each block holds one compound with its values, some of them ahead of it.

Experiments:
[1] = target: T1, α-Glucosidase from Saccharomyces cerevisiae (Saccharomyces cerevisiae, UniProt P53341); assay: α-Glucosidase inhibition (pNPG colorimetric); assay type: biochemical
T1 construct: purchased Sigma-Aldrich G003
T1 sequence (P53341 whole entry): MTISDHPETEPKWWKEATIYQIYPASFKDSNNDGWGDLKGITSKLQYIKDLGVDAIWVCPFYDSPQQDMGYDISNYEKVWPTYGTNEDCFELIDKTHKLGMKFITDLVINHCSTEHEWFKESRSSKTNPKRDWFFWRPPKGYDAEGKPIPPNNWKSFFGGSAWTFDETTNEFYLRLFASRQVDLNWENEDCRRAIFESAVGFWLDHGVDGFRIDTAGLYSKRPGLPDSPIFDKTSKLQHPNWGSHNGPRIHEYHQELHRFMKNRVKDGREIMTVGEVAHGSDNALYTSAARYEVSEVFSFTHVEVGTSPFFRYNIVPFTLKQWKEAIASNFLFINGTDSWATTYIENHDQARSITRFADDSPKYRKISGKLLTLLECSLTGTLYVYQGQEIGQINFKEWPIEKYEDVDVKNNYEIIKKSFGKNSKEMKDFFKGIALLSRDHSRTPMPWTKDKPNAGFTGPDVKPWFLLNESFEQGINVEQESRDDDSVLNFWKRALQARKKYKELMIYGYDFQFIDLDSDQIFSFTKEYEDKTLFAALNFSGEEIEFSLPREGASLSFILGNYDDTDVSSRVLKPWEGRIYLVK
Procedure: α-Glucosidase from Saccharomyces cerevisiae (Sigma-Aldrich, St. Louis, MO, USA cat#G003) was used in this assay. Solutions of the different compounds were prepared in 1000 µM final concentrations in dimethyl sulfoxide (DMSO). Compounds that exceeded 50% inhibition at this concentration were serially diluted to determine their half-maximal inhibitory concentration (IC50).
Briefly, 25 μL of samples/blank were incubated for 10 min at 37 °C with 50 μL of α-glucosidase (0.6 U/mL) in phosphate buffer (0.1 M, pH 7) in 96-microwell plates. The mixture was then incubated at 37 °C for 5 min with 25 μL of 3 mM pNPG in phosphate buffer (pH 7). A microplate reader (TECAN, Männedorf, Switzerland) was used to measure p-nitrophenol release from pNPG substrate at 405 nm to determine enzyme activity. Then, % α-glucosidase inhibition was estimated.

[2] = tested on: advanced glycation end products (AGEs) formation, BSA-fructose model; assay: AGEs formation inhibition, BSA-fructose assay; assay type: biochemical; conditions: AGEs fluorescence, 72 h, 37 °C; read-out: BSA-Fructose Model IC50 (Mean ± SE)
Procedure: (§1) The isolated compounds were prepared at final concentrations of 500 µM in DMSO in the BSA-fructose assay, and 1000 µM in all other AGEs assays. Compounds that exceeded 50% inhibition at this concentration were serially diluted to determine their IC50. All tests were conducted using quercetin (positive control).
According to the previous report, the inhibition test for AGE formation was assessed using the BSA-fructose model. Briefly, BSA (50 mg/mL) and fructose (1.25 M) (in 200 mM phosphate buffer, pH 7.4, with 0.02% sodium azide) were incubated with Sample/blank in the dark for 72 h at 37 °C, (1:1:1 by volume). On a microplate reader (Fluostar Omega BMG Labtech, Ortenberg, Germany), fluorescent AGEs were detected using excitation and emission wavelengths of 355 nm and 460 nm, respectively. Triplicates of all experiments were performed, and the percentage of AGEs inhibition was calculated.

[3] = tested on: advanced glycation end products (AGEs) formation, BSA-methylglyoxal model; assay: AGEs formation inhibition, BSA-methylglyoxal assay; assay type: biochemical; conditions: AGEs fluorescence, 72 h, 37 °C; read-out: BSA-Methylglyoxal Model IC50 (Mean ± SE)
Procedure: as §1
AGEs inhibitory activity of the isolated compounds was determined according to the reported procedures with slight modification. Briefly, in black 96-microwell plates, samples were incubated for 72 h at 37 °C in the dark with bovine serum albumin (BSA, 50 mg/mL) (in 200 mM phosphate buffer, pH 7.4, with 0.02% sodium azide) and methyl-glyoxal (53.3 mM, in distilled water), (1:1:1 v/v/v). On a microplate reader (Fluostar Omega/BMG Labtech/Germany), fluorescent AGEs were detected using excitation and emission wavelengths of 355 nm and 460 nm, respectively. Triplicates of all experiments were performed.

[4] = DPPH assay; conditions: read-out: DPPH assay IC50 (Mean ± SE)
Procedure: Isolated compounds were prepared in final concentrations of 1000 µM in DMSO. Compounds that exceeded 50% inhibition at this concentration were serially diluted to determine their IC50. Ascorbic acid was used as a positive control, prepared in a concentration of 100 µM in water from which six concentrations were prepared to calculate its IC50. The method is based on the reduction of free radical of 2,2-diphenyl-1-picrylhydrazyl (DPPH). Briefly, in a 96-well plate, 20 μL of the isolated compound was incubated for 20 min in the absence of light with 180 μL of DPPH reagent (100 μM). The reduction of intensity in the color of DPPH was assessed on a microplate reader (TECAN, Männedorf, Switzerland) at 540 nm (Supplementary Table S2).

[5] = Metal chelation assay (ferrozine); conditions: EDTA equivalents; mean ± SD
Procedure: Isolated compounds were dissolved in DMSO to prepare a concentration of 0.5 mg/mL, meanwhile, the positive control (EDTA) was used to prepare a stock solution of 100 µM in water; from which six concentrations were prepared including 5, 10, 20, 40, 50 and 80 µM to construct the dose-response curve. The assay was carried out as previously reported, with minor modifications. Briefly, in 96 wells plate (n = 6) 20 µL of the freshly prepared ferrous sulfate (0.3 mM) was mixed with 50 µL of the tested compound and incubated with 30 µL of ferrozine (0.8 mM) for 10 min at room temperature. Finally, reduction in color intensity was assessed at 540 nm using a microplate reader (Tecan, San Jose, CA, USA). Data are represented as means (n = 3) ± SD and the antioxidant effect of the extracts was calculated as µM EDTA equivalents by substitution in the linear regression equation (Supplementary Figure S4).

[6] = Saccharomyces cerevisiae enzyme, pNPG substrate, read-out: α-Glucosidase assay IC50 (Mean ± SE)

IC50 [1, 6]: 545 µM
IC50 [2]: 262 µM
IC50 [3]: 1880 µM
IC50 [4]: 29 µM
SMILES: O=C(O)[C@H]1O[C@@H](Oc2c(-c3ccc(O)c(O)c3)oc3cc(O)cc(O)c3c2=O)[C@H](O)[C@@H](O)[C@@H]1O [Compound 2, quercetin-3-O-β-D-glucuronic acid]
Metal chelation [5]: 8.29±0.05 µM EDTA eq/mg and 8.29 µM EDTA eq/mg

IC50 [1, 6]: 385 µM
IC50 [2]: 500 µM
IC50 [3]: > 1200 µM
IC50 [4]: 123 µM
SMILES: O=C(O)[C@H]1O[C@@H](Oc2c(-c3ccc(O)c(O)c3)oc3cc(O)cc(O)c3c2=O)[C@H](O)[C@@H](O)[C@H]1O [Compound 3, quercetin-3-O-β-D-galacturonic acid]
Metal chelation [5]: 28.26±0.78 µM EDTA eq/mg and 28.26 µM EDTA eq/mg

The next lines start with the compound.

SMILES: O=C(OC[C@H]1O[C@H](OC(=O)c2cc(O)c(O)c(O)c2)[C@H](O)[C@@H](OC(=O)c2cc(O)c(O)c(O)c2)[C@@H]1O)c1cc(O)c(O)c(O)c1 (stereo in doubt) [Compound 5, 1,3,6-trigalloyl glucose]
IC50 [1, 6]: 4.5 µM
IC50 [2]: 35 µM
IC50 [3]: 657 µM
IC50 [4]: 4 µM
Metal chelation [5]: 17.52±2.43 µM EDTA eq/mg and 17.52 µM EDTA eq/mg

SMILES: O=c1cc(-c2ccc(O)cc2)oc2cc(O[C@@H]3O[C@H](CO)[C@@H](O)[C@H](O)[C@H]3O)cc(O)c12 [Compound 1, apeginin-7-O-β-D-glucoside]
IC50 [1]: 408 µM
IC50 [2]: 303 µM
IC50 [3]: 668 µM
IC50 [4]: 366 µM
Metal chelation [5]: 19.26±1.52 µM EDTA eq/mg and 19.26 µM EDTA eq/mg

SMILES: C[C@@H]1O[C@@H](OC[C@H]2O[C@@H](Oc3c(-c4ccc(O)c(O)c4)oc4cc(O)cc(O)c4c3=O)[C@H](O)[C@@H](O)[C@@H]2O)[C@H](O)[C@H](O)[C@H]1O [Compound 4, rutin]
IC50 [1]: 754 µM
IC50 [2]: 37 µM
IC50 [3]: 493 µM
IC50 [4]: 19 µM
Metal chelation [5]: 28.96±2.07 µM EDTA eq/mg and 28.96 µM EDTA eq/mg
